Experimental data from PubChem BioAssay (NCI).
Where “and” joins values, the source holds several entries; their conditions need not be identical. Identical values can stand only once.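 Five concentrations, 48 hours, 96-well plates. Here, GI50 denotes the concentration required for 50% inhibition of growth. The concentration for full growth arrest is given as TGI.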

Tests used:
Test in all cases: NCI tumour cell line growth inhibition, 48 h
SN12C renal = tested on: SN12C renal
HT29 colon = tested on: HT29 colon
SNB-75 CNS = tested on: SNB-75 CNS
SNB-19 CNS = tested on: SNB-19 CNS
HS 578T breast = tested on: HS 578T breast
ACHN renal = tested on: ACHN renal
SW-620 colon = tested on: SW-620 colon
RXF 393 renal = tested on: RXF 393 renal
RPMI-8226 leukemia = tested on: RPMI-8226 leukemia
HL-60(TB) leukemia = tested on: HL-60(TB) leukemia

| SMILES | TGI (SN12C renal) | TGI (HT29 colon) | TGI (SNB-75 CNS) | TGI (SNB-19 CNS) [µM] | TGI (HS 578T breast) [µM] | TGI (ACHN renal) [µM] | TGI (SW-620 colon) | TGI (RXF 393 renal) [µM] | TGI (RPMI-8226 leukemia) | GI50 (SN12C renal) [µM] | GI50 (HT29 colon) [µM] | GI50 (SNB-75 CNS) [µM] | TGI (HL-60(TB) leukemia) | GI50 (ACHN renal) [µM] |
| --- | --- | --- | --- | --- | --- | --- | --- | --- | --- | --- | --- | --- | --- | --- |
| O=c1[nH]c2ccccc2c2oc(-c3ccccc3)nc12 | 43.4 µM | > 100 µM | 45.8 µM | 80.8 | 71.9 | > 100 | 58.1 µM | 44 | 70 µM |  |  |  |  |  |
| CN(C)CC(NC(NCS)C(=O)NCCNc1ccc(NCCNC(=O)C(NCS)NC(CN(C)C)OCCl)c2c1C(=O)c1c(O)ccc(O)c1C2=O)OCCl (stereo unspecified) | 0.477 µM | 0.278 µM and 1.58 µM | 1.77 µM and 0.99 µM | 1.96 | 3.05 | 0.194 | 1.25 µM |  | 0.03 µM | < 0.001 | 0.228 | 0.0387 |  |  |
| CCS(=O)(=O)c1c2cc(OC)ccc2nc2ccc(OC)cc12 | > 100 µM | > 100 µM | > 100 µM | > 100 |  | > 100 | > 100 µM | > 100 |  |  |  |  | > 100 µM |  |
| CC(=O)NC1=C(NCc2ccc(Cl)cc2)C(=O)c2ccccc2C1=O | > 50 µM | > 50 µM | 15.2 µM | > 50 |  | 6.13 | 13.6 µM | 10.5 |  |  |  |  | 3.22 µM |  |
| COc1ccc2c(c1)-c1nn(CCN(C)C)c3ccc(C(=O)NCCCN(C)CCCNC(=O)c4ccc5c6c(nn5CCN(C)C)-c5cc(OC)ccc5Nc46)c(c13)N2 | 0.983 µM | 1.74 µM | 0.393 µM | 1.04 |  | 7.28 | 1.54 µM | 0.499 | 0.0768 µM |  |  |  | 2.63 µM |  |
| O=C(O)C1SCCS1 | > 100 µM | > 100 µM | > 100 µM | > 100 |  | > 100 | > 100 µM |  | > 100 µM |  |  |  | > 100 µM |  |
| O=C(CCCn1ccnc1[N+](=O)[O-])NCCn1ccnc1[N+](=O)[O-] | > 100 µM | > 100 µM | > 100 µM | > 100 | > 100 | > 100 | > 100 µM |  | > 100 µM |  |  |  | > 100 µM |  |
| CN(c1ccccc1Cl)S(=O)(=O)c1ccccc1[N+](=O)[O-] | > 100 µM | > 100 µM | > 100 µM | > 100 | > 100 |  | > 100 µM | 90 | > 100 µM |  |  |  | > 100 µM |  |
| CC(C)C1=CC23CCC4C(C)(C(=O)O)CCCC4(C)C2CC1C(C(=O)O)C3C(=O)O (stereo unspecified) | > 100 µM | > 100 µM | > 100 µM | > 100 | > 100 | > 100 | > 100 µM | > 100 |  |  |  |  |  |  |
| CC1(C)[C@@H]2C[C@H]1C(Cc1cccc(C[C@H]3c4cc(-c5ccccn5)ncc4[C@H]4C[C@@H]3C4(C)C)c1)c1cc(-c3ccccn3)ncc12 (stereo partly specified) | > 100 µM | > 100 µM | > 100 µM | > 100 | > 100 | > 100 | > 45.6 µM | > 100 | 32.1 µM |  |  |  |  | 0.605 |
| COC1/C=C/C(C)C(C(C)C(OC)C(C)CCC(=O)C(C)C(C/C=C/N(C)C=O)OC)OC(=O)/C=C/C=C(\C)CC(OC)C(OC)C2=CC(=O)O[C@@H](C(C)C(OC)CC(OC)/C=C/C(C)C(O)C1)[C@H]2O (stereo partly specified) |  | 2.15 µM |  |  | 0.16 | 0.594 | 0.343 µM | 0.263 |  |  |  |  | 0.43 µM |  |
| Cn1ccc(C(=O)NCCCCCNC(=O)c2ccn(C)c(=O)c2O)c(O)c1=O | > 100 µM | > 100 µM |  | > 100 | > 100 | > 100 | > 100 µM |  |  |  |  |  | > 100 µM |  |
| c1ccc(Nc2nnc(-c3nsc4ccccc34)o2)cc1 | > 100 µM | > 100 µM | 78.4 µM | > 100 |  | > 100 | > 100 µM | > 100 | > 100 µM |  |  |  | > 100 µM |  |
| CC(C)C(C/C=C1\CC(CO)(COC(=O)CC(C(C)C)C(C)C)OC1=O)C(C)C (stereo unspecified) | 22.1 µM | 32.6 µM | 22.9 µM | 26.5 | 15.8 | 22.5 | 21.6 µM | 28.4 |  |  |  |  | 18.8 µM |  |
| COc1ccc(C(O)/C(=C/n2ccnc2)c2ccccc2)cc1OC (stereo unspecified) | > 100 µM | > 100 µM | > 100 µM | > 100 |  | > 100 | > 100 µM | > 100 | > 100 µM |  |  |  | > 100 µM |  |
| O=C(c1ccccc1)N1C(=S)N(c2ccc([N+](=O)[O-])cc2)C(=Nc2ccccc2)C1=Nc1ccccc1 | > 100 µM | > 100 µM | > 100 µM | > 100 | > 100 | > 100 | > 100 µM | > 100 | > 100 µM |  |  |  |  |  |
| COc1cc(/C=C/C(=O)OC[C@H](Br)[C@H](OC(C)=O)c2ccc3c(c2)OCO3)cc(OC)c1OC | > 100 µM | > 100 µM |  | > 100 |  | > 100 | > 100 µM | > 100 | > 100 µM |  |  |  |  |  |
| COc1ccc(C2=CN3CCC[C@H]3C=C2c2cc(O)c(OC)c(OC)c2)cc1OC | 0.0568 µM and 0.189 µM | 0.113 µM and 0.0377 µM | 0.00947 µM |  | 0.036 | 0.0959 | 0.0578 µM and 0.0206 µM | 0.0288 | 0.0806 µM and 0.202 µM |  |  |  | 0.161 µM and 0.0175 µM |  |
| Cc1n(CC(=O)c2ccccc2)nc2sc(N)n[n+]12 | > 100 µM | > 100 µM | > 100 µM | > 100 | > 100 | > 100 | > 100 µM | > 100 | > 100 µM |  |  |  |  |  |
| C/C(N=Nc1nc2ccccc2o1)=C1/C=CC=CN1O | > 100 µM | > 100 µM |  | > 100 | > 100 | > 100 | > 100 µM | > 100 | > 100 µM |  |  |  |  |  |
| c1ccc(C2=C(c3ccccc3)P(c3ccccc3)C2)cc1 (stereo unspecified) | > 100 µM | > 100 µM | > 100 µM |  | > 100 | > 100 | > 100 µM | > 100 |  |  |  |  |  |  |
| CCCCCCCCC/C=C1\CC(CO)(COC(=O)c2ccccc2)OC1=O (stereo unspecified) | 49.7 µM | 35.3 µM | 38.3 µM | 40.2 | 40.2 | > 100 | 34.2 µM | 47.4 |  |  |  |  |  |  |
